# Data from patent US20230145764A1, “BLOOD-BASED TUMOR MUTATION BURDEN PREDICTS OVERALL SURVIVAL IN NSCLC” (MEDIMMUNE, LLC, priority 2018, published 2023).
# What was measured:
# metastatic NSCLC [1] = test: MYSTIC phase 3 study, efficacy (OS, PFS, tumor response) in ITT population and PD-L1 expression subgroups; format: in vivo, human; settings: for ORR, %: BICR per RECIST v1.1
# From the text: Adult patients with Stage IV NSCLC were eligible provided they had not previously received systemic therapy for advanced/metastatic NSCLC, had Eastern Cooperative Oncology Group performance status 0-1, measurable disease according to Response Evaluation Criteria in Solid Tumors version 1.1 (RECIST v1.1) (Chaft et al., Cancer Res. 78(13 Suppl) (abstr. CT113) (2018)), and known tumor PD-L1 expression status prior to randomization. Patients with sensitizing EGFR mutations or ALK rearrangements, and those with symptomatic, unstable brain metastases were excluded.
# (§1) Patients continued treatment until objective disease progression (according to RECIST v1.1), development of an adverse event (AE) that necessitated treatment discontinuation, or withdrawal of consent.
# Investigation of the relationship between biomarkers, including TMB, and clinical outcomes were also determined.
# PD-L1 expression was evaluated using multiple cut-offs at a central laboratory using the VENTANA PD-L1 (SP263) immunohistochemistry (IHC) assay (Ventana Medical Systems, Tucson, Ariz., USA) (Rebelatto et al., Diagn. Pathol. 11(1): 95 (2016)). Tumor samples obtained within 3 months prior to screening were permitted.
# (§2) Tumor response was assessed by BICR using RECIST v1.1, with imaging performed every 6 weeks for the first 48 weeks, then every 8 weeks, until confirmed disease progression. Patients were followed for survival. AEs were graded according to National Cancer Institute Common Terminology Criteria for Adverse Events version 4.03.
# (§3) Efficacy was analyzed on an intention-to-treat (ITT) basis, including all randomized patients or subsets of this population based on PD-L1 expression or TMB levels. Safety analyses included all patients who received at least one dose of study treatment (as-treated population).
# To control the type I error at 5% (two-sided), a hierarchical multiple testing procedure with gatekeeping strategy was used across endpoints, analysis populations, and treatment regimens. The primary PFS analysis was performed using a stratified log-rank test adjusting for histology, with hazard ratio (HR) and 99.5% confidence interval (CI) estimated using a Cox proportional hazards model. […] Survival curves were generated using the Kaplan-Meier method.
# (§4) Odds ratios and 95% CI for comparing ORR between treatment groups were calculated using a logistic regression model, adjusted for the same factors as PFS and OS. Prespecified TMB analysis was performed using an unstratified log-rank test, with HRs and 95% Cis estimated using a Cox proportional hazards model.
# metastatic NSCLC [2] = test: MYSTIC phase 3 study, efficacy by blood TMB (GuardantOMNI) or tissue TMB (FoundationOne) subgroup; format: in vivo, human
# Procedure: as §1
# Blood TMB was evaluated using the GuardantOMNI next-generation sequencing platform (Guardant Health, Redwood City, Calif., USA) comprised of 500 genes (FIG. 1).
# The OMNI TMB algorithm incorporates somatic single nucleotide variants (SNVs), short insertions/deletions (indels), copy number amplifications and fusions, and is optimized to calculate TMB on blood samples with low cell-free circulating tumor DNA content (Merck Sharp & Dohme. Keytruda® (pembrolizumab) Summary of Product Characteristics. Updated March 2019. Available at: https://www.medicines.org.uk/emc/product/6947/smpc (last accessed May 1, 2019); Reck et al., N. Engl. J. Med. 375(19): 1823-33 (2016)). Both synonymous and nonsynonymous SNVs and indels were included, with removal of those with low shedding values, low diversity, and associations with clonal hematopoiesis, germline and oncogenic driver or drug resistance mechanisms. Tissue TMB was evaluated using the FoundationOne tissue next-generation sequencing platform (Foundation Medicine, Cambridge, Mass., USA). The algorithm has been described previously (Merck Sharp & Dohme. Keytruda® (pembrolizumab) prescribing information. Updated April 2019. Available at: https://www.merck.com/product/usa/pi_circulars/k/keytruda/keytruda_pi.pdf (last accessed May 1, 2019)).
# as §3, §4
# [3] = MYSTIC phase 3 study, safety (adverse events, as-treated population); settings: in vivo
# Procedure: as §1, §2, §3
# mNSCLC = test: MYSTIC ctDNA mutation analysis (STK11, KEAP1, ARID1A), overall survival by mutation status; format: in vivo, human
# Procedure: This example investigated associations between selected mutations and survival outcomes. Circulating tumour DNA from baseline plasma specimens was profiled using the GuardantOMNI platform. Samples were available from 1003 patients (89.7% of ITT population). 943 samples were mutation-evaluable. Survival outcomes were analysed in patients with or without non-synonymous somatic mutations in STK11, KEAP1, or ARID1A, or KRAS.
# PD-L1 = PD-L1 (Homo sapiens, UniProt Q9NZQ7); settings: in vitro; cited from earlier work
# Chain of PD-L1 (Q9NZQ7 19-290): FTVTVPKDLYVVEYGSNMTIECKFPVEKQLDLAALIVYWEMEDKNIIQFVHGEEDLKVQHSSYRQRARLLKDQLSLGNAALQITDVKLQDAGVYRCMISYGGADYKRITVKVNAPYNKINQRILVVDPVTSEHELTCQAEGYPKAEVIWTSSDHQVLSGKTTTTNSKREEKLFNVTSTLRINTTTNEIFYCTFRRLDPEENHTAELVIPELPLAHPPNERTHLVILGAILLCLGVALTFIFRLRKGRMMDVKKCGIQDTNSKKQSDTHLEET
# xenograft model = settings: via a T-cell dependent mechanism; cited from earlier work
# human CTLA-4 = molecular target: T1, human CTLA-4 (Homo sapiens, UniProt P16410); settings: specific for human CTLA-4; cited from earlier work
# T1 sequence (P16410 36-223): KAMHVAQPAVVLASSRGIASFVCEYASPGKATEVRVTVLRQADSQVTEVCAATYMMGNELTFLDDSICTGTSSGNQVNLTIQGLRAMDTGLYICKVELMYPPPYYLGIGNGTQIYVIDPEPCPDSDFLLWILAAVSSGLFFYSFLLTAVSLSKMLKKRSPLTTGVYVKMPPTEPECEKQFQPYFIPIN
# Fc receptors = settings: cited from earlier work
# [4] = test system: natural killer (NK) ADCC activity; settings: cited from earlier work
substance,measurement,setting,value
durvalumab,Hazard ratio (95% CI) for death compared with chemotherapy,metastatic NSCLC [1]; ITT population,0.96
same,"Median overall survival, months (95% CI)",metastatic NSCLC [1]; ITT population,12.3 months
same,Hazard ratio (95% CI) for death compared with chemotherapy,metastatic NSCLC [1]; PD-L1 TC <1%,1.18
same,"Median overall survival, months (95% CI)",metastatic NSCLC [1]; PD-L1 TC <1%,10.1 months
same,Hazard ratio (95% CI) for death compared with chemotherapy,metastatic NSCLC [1]; PD-L1 TC ≥1%,0.88
same,"Median overall survival, months (95% CI)",metastatic NSCLC [1]; PD-L1 TC ≥1%,14.6 months
same,24-month OS rate,metastatic NSCLC [1]; PD-L1 TC ≥25%,38.3%
same,"Best objective response, Complete response, %",metastatic NSCLC [1]; PD-L1 TC ≥25%,(0.6) %
same,"Best objective response, Not evaluable, %",metastatic NSCLC [1]; PD-L1 TC ≥25%,(1.2) %
same,"Best objective response, Partial response, %",metastatic NSCLC [1]; PD-L1 TC ≥25%,(35.0) %
same,"Best objective response, Progressive disease, %",metastatic NSCLC [1]; PD-L1 TC ≥25%,(32.5) %
same,"Best objective response, Stable disease ≥ 6 weeks, %",metastatic NSCLC [1]; PD-L1 TC ≥25%,(30.7) %
same,HR for death vs. chemotherapy,metastatic NSCLC [1]; PD-L1 TC ≥25%,0.76
same,Remaining in response (%) at 6 months,metastatic NSCLC [1]; PD-L1 TC ≥25%,66.9%
same,Remaining in response (%) at 12 months,metastatic NSCLC [1]; PD-L1 TC ≥25%,61.3%
same,difference in PFS versus chemotherapy group,metastatic NSCLC [1]; PD-L1 TC ≥25%,no statistically significant difference
same,median OS,metastatic NSCLC [1]; PD-L1 TC ≥25% (primary analysis population),16.3 months
same,"ORR, %",metastatic NSCLC [1]; PD-L1 TC ≥25%,35.6%
same,"ORR, %","metastatic NSCLC [1]; PD-L1 TC ≥25%, listed as Durvalumab Monotherapy",(35.6) %
same,"Median DOR, months (95% CI)","metastatic NSCLC [1]; PD-L1 TC ≥25%, Kaplan-Meier, NR = not reached",NR (9.7-NR)
same,Hazard ratio (95% CI) for death compared with chemotherapy,metastatic NSCLC [1]; PD-L1 TC ≥25-49%,0.78
same,"Median overall survival, months (95% CI)",metastatic NSCLC [1]; PD-L1 TC ≥25-49%,11.1 months
same,Hazard ratio (95% CI) for death compared with chemotherapy,metastatic NSCLC [1]; PD-L1 TC ≥50%,0.76
same,"Median overall survival, months (95% CI)",metastatic NSCLC [1]; PD-L1 TC ≥50%,18.3 months
same,Estimated odds ratio vs. chemotherapy (95% CI),metastatic NSCLC [1]; in vivo,0.91
same,Number of events/patients,"metastatic NSCLC [1]; overall survival, ITT population",278/374
same,Number of patients,"metastatic NSCLC [1]; overall survival, PD-L1 TC <1%",84/95
same,Number of patients,"metastatic NSCLC [1]; overall survival, PD-L1 TC ≥1%",194/279
same,Number of patients,"metastatic NSCLC [1]; overall survival, PD-L1 TC ≥25-49%",33/45
same,Number of patients,"metastatic NSCLC [1]; overall survival, PD-L1 TC ≥50%",75/118
same,"ORR, %",metastatic NSCLC [2]; Blood TMB <20 mut/Mb,(20.6) %
same,Remaining in response (%) at 6 months,metastatic NSCLC [2]; Blood TMB <20 mut/Mb,64.0%
same,Remaining in response (%) at 12 months,metastatic NSCLC [2]; Blood TMB <20 mut/Mb,59.1%
same,"ORR, %",metastatic NSCLC [2]; Blood TMB ≥20 mut/Mb,(29.9) %
same,Remaining in response (%) at 6 months,metastatic NSCLC [2]; Blood TMB ≥20 mut/Mb,86.5%
same,Remaining in response (%) at 12 months,metastatic NSCLC [2]; Blood TMB ≥20 mut/Mb,80.3%
same,HR for death versus chemotherapy,metastatic NSCLC [2]; Tissue TMB ≥10 mut/Mb,0.70
same,median OS,metastatic NSCLC [2]; Tissue TMB ≥10 mut/Mb,18.6 months
same,median OS,metastatic NSCLC [2]; bTMB ≥20 mut/Mb,12.6 months
same,unadjusted HR for death vs. chemotherapy,metastatic NSCLC [2]; bTMB ≥20 mut/Mb,0.72
same,"All-grade treatment-related AEs (TRAEs), % of patients",[3],54.2%
same,"Immune-mediated AEs of grade 3 or 4, % of patients",[3],4.1%
same,"Immune-mediated AEs, % of patients",[3],13.6%
same,Rates of grade ≥3 TRAEs,[3],14.9%
same,TRAEs leading to discontinuation,[3],5.4%
same,"Treatment-related deaths, %",[3],0.5%
same,"Treatment-related deaths, patients",[3],2 patients
same,median OS (mOS),mNSCLC; patients with ARID1Am,8.6 months
same,median OS (mOS),mNSCLC; patients with ARID1Awt,13.7 months
same,median OS (mOS),mNSCLC; patients with KEAP1m,7.6 months
same,median OS (mOS),mNSCLC; patients with KEAP1wt,14.6 months
same,median OS (mOS),mNSCLC; patients with STK11m,10.3 months
same,median OS (mOS),mNSCLC; patients with STK11wt,13.3 months
same,PD-L1-mediated suppression of human T-cell activation,PD-L1,relieve PD-L1-mediated suppression
same,tumor growth in a xenograft model,xenograft model,inhibits tumor growth
tremelimumab,cross-reactivity to related human proteins,human CTLA-4,no cross-reactivity
same,specific binding to Fc receptors,Fc receptors,minimal specific binding
same,induction of natural killer (NK) ADCC activity,[4],does not induce
